Laboratory results: BigSolDB 2.1

CSCC1CN(/N=C/c2ccc([N+](=O)[O-])o2)C(=O)O1 (configuration not stated)
solubility (mole fraction)
Settings | 293.15 K | 298.15 K | 303.15 K | 308.15 K | 313.15 K | 318.15 K | 323.15 K | 328.15 K | 333.15 K
in DMF | 0.012 | 0.015 | 0.0186 | 0.0229 | 0.0279 | 0.0338 | 0.0405 | 0.0483 | 0.0571
in DMSO | 0.0172 | 0.021 | 0.0255 | 0.0307 | 0.0367 | 0.0435 | 0.0511 | 0.0596 | 0.069
in THF | 0.000618 | 0.000801 | 0.00103 | 0.00131 | 0.00166 | 0.00209 | 0.0026 | 0.00322 | 0.00397
in acetic acid | 0.000206 | 0.000275 | 0.000364 | 0.000479 | 0.000624 | 0.000808 | 0.00104 | 0.00133 | 0.00168
in acetone | 0.00109 | 0.0014 | 0.00178 | 0.00225 | 0.00281 | 0.0035 | 0.00432 | 0.0053 | –
in acetonitrile | 0.00235 | 0.00296 | 0.00369 | 0.00457 | 0.00562 | 0.00687 | 0.00835 | 0.0101 | 0.0121
in dichloromethane | 0.00151 | 0.00192 | 0.00242 | 0.00303 | – | – | – | – | –
in ethanol | 1.98e-05 | 2.7e-05 | 3.65e-05 | 4.89e-05 | 6.49e-05 | 8.54e-05 | 0.000111 | 0.000144 | 0.000185
in ethyl acetate | 0.000224 | 0.000297 | 0.000389 | 0.000505 | 0.000651 | 0.000832 | 0.00106 | 0.00133 | 0.00167
in isopropanol | 1.45e-05 | 2e-05 | 2.73e-05 | 3.69e-05 | 4.94e-05 | 6.56e-05 | 8.63e-05 | 0.000113 | 0.000146
in methanol | 3.84e-05 | 5.31e-05 | 7.26e-05 | 9.85e-05 | 0.000132 | 0.000177 | 0.000234 | 0.000308 | 0.000403
in water | 1.53e-05 | 2.06e-05 | 2.75e-05 | 3.63e-05 | 4.74e-05 | 6.16e-05 | 7.93e-05 | 0.000101 | 0.000129
